The values below come from patent publication US20040068113A1, “Substituted polycyclic aryl and heteroaryl pyridines useful for selective inhibition of the coagulation cascade” (priority 2003, published 2004).

What all share (assay type): biochemical
Experiment [1] concerns the target T1, recombinant soluble tissue factor and recombinant human factor VIIa (TF-VIIa) (Homo sapiens, UniProt P08709).
T1 construct: purchased American Diagnostica, Greenwich Conn; host or cells: soluble TF made in house in E. coli
Kind of experiment: TF-VIIa Assay. Here is the method: In this assay 100 nM recombinant soluble tissue factor and 2 nM recombinant human factor VIIa are added to a 96-well assay plate containing 0.4 mM of the substrate, N-Methylsulfonyl-D-phe-gly-arg-p-nitroaniline and either inhibitor or buffer (5 mM CaCl2, 50 mM Tris-HCl, pH 8.0, 100 mM NaCl, 0.1% BSA). The reaction, in a final volume of 100 ul is measured immediately at 405 nm to determine background absorbance. The plate is incubated at room temperature for 60 min, at which time the rate of hydrolysis of the substrate is measured by monitoring the reaction at 405 nm for the release of p-nitroaniline. Percent inhibition of TF-VIIa activity is calculated from OD405 nm value from the experimental and control sample.
(§1) Recombinant soluble TF, consisting of amino acids 1-219 of the mature protein sequence was expressed in E. coli and purified using a Mono Q Sepharose FPLC. Recombinant human VIIa was purchased from American Diagnostica, Greenwich Conn. and chromogenic substrate N-Methylsulfonyl-D-phe-gly-arg-p-nitroaniline was prepared by American Peptide Company, Inc., Sunnyvale, Calif. Factor Xa was obtained from Enzyme Research Laboratories, South Bend Ind., thrombin from Calbiochem, La Jolla, Calif., and trypsin and L-BAPNA from Sigma, St. Louis Mo. The chromogenic substrates S-2765 and S-2238 were purchased from Chromogenix, Sweden.

Experiment [2] concerns the target T2, Human factor Xa (Homo sapiens, UniProt P00742).
T2 construct: purchased Enzyme Research Laboratories, South Bend Ind
The experiment can be described thus: Xa Assay. Here is the method:
(§2) Human factor Xa (0.3 nM) and 0.15 mM N-a-Benzyloxycarbonyl-D-arginyl-L-glycyl-L-arginine-p-nitroaniline-dihydrochloride (S-2765) are added to a 96-well assay plate containing either inhibitor or buffer (50 mM Tris-HCl, pH 8.0, 100 mM NaCl, 0.1% BSA). The reaction, in a final volume of 100 ul is measured immediately at 405 nm to determine background absorbance. The plate is incubated at room temperature for 60 min, at which time the rate of hydrolysis of the substrate is measured by monitoring the reaction at 405 nm for the release of p-nitroaniline. Percent inhibition of Xa activity is calculated from OD405 nm value from the experimental and control sample.
as §1

In experiment [3] the target is Human thrombin (Homo sapiens, UniProt P00734). Kind of experiment: Thrombin Assay. Conditions: read-out: Thrombin II IC50. Here is the method:
as §2, with “thrombin (0.28 nm)and 0.06” for “factor Xa (0.3 nM) and 0.15”, “H-D-Phenylalanyl-L-pipecolyl-L-arginine-p-nitroaniline dihydrochloride” for “N-a-Benzyloxycarbonyl-D-arginyl-L-glycyl-L-arginine-p-nitroaniline-dihydrochloride (S-2765)”, “thrombin” for “Xa”, “OD405nm” for “OD405 nm”
as §1

The target of experiment [4] is T3, Trypsin (type 1× from porcine pancreas) (Sus scrofa, UniProt P00761).
T3 construct: Trypsin (5 ug/ml; type 1× from porcine pancreas); purchased Sigma, St. Louis Mo; host or cells: porcine pancreas
T3 sequence (P00761 9-231): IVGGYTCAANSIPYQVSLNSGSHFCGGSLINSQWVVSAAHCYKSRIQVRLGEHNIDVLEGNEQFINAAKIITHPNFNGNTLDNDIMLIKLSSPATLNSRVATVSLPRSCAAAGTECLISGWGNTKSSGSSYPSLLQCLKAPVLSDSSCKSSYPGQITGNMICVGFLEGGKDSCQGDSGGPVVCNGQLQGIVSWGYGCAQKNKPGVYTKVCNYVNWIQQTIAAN
Kind of experiment: Trypsin Assay. Conditions: read-out: Trpysin II IC50. Here is the method: Trypsin (5 ug/ml; type 1× from porcine pancreas) and 0.375 mM N-α-Benzoyl-L-arginine-p-nitroanilide (L-BAPNA) are added to a 96-well assay plate containing either inhibitor or buffer (50 mM Tris-HCl, pH 8.0, 100 mM NaCl, 0.1% BSA). The reactions, in a final volume of 100 ul are measured immediately at 405 nm to determine background absorbance. The plate is incubated at room temperature for 60 min, at which time the rate of hydrolysis of the substrate is measured by monitoring the reaction at 405 nm for the release of p-nitroaniline. Percent inhibition of trypsin activity is calculated from OD405 nm value from the experimental and control sample.
as §1

[5] abbreviates: read-out: Factor Xa percent inhibition.

T1 sequence (P08709 213-466 limits assumed): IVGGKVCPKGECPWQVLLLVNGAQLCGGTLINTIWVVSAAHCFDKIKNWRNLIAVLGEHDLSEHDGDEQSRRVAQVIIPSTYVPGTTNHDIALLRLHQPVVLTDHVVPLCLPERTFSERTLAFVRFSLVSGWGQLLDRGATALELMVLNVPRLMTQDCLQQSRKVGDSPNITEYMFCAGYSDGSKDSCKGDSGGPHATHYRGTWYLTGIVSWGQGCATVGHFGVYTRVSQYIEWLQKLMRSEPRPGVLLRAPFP
T1 sequence (P08709 61-212 limits assumed): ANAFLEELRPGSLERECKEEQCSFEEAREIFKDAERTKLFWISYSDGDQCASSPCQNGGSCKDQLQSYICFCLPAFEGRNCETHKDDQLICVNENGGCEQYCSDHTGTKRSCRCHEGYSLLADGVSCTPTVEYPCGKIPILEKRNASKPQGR
T1 sequence (P13726 33-251 partner limits assumed): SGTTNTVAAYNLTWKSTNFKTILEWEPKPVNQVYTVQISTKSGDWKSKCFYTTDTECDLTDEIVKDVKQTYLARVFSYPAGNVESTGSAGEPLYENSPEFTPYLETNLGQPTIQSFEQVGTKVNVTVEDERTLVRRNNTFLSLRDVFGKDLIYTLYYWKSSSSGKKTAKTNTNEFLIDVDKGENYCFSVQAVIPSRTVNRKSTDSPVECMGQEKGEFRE
T2 sequence (P00742 235-488 limits assumed): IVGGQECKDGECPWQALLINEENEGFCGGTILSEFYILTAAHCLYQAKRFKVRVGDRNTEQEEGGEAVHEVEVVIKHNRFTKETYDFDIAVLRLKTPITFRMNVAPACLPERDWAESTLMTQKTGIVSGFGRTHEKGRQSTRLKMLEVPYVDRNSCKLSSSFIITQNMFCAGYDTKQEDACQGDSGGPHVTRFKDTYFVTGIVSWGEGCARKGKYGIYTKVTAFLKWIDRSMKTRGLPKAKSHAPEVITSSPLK
T2 sequence (P00742 41-179 limits assumed): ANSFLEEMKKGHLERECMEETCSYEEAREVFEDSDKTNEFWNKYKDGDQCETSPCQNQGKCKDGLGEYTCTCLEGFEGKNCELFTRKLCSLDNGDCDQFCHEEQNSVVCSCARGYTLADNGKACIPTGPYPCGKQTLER

On to `N=C(N)c1ccc(CNC(=O)Cc2nc(NC3CCC3)ccc2-c2cccc(N)c2)cc1` [Example 1], for which the IC50 came to 2460 nM in experiment [1], 710 nM in experiment [3] and 60 nM in experiment [4]. Besides, the inhibition at 30 µM in experiment [2] (setting [5]) stood at 27%.
`N=C(N)c1ccc(CNC(=O)Cc2c(-c3cccc(N)c3)ccc(NC3CCC3)[n+]2[O-])cc1` [Example 2]: the IC50 came to 70 nM in experiment [1], 7130 nM in experiment [3] and 20 nM in experiment [4]. The inhibition at 30 µM in experiment [2] (setting [5]) turned out to be 26%.
Regarding `CC(C)Nc1ccc(-c2cc(N)cc(C(=O)O)c2)c(CC(=O)NCc2ccc(C(=N)N)cc2)[n+]1[O-]` [Example 3], the IC50 was 720 nM in experiment [1], more than 100000 nM in experiment [2], more than 100000 nM in experiment [3] and 158 nM in experiment [4].
As for `CC(C)Nc1ccc(-c2ccccc2OCc2ccccc2)c(CC(=O)NCc2ccc(C(=N)N)cc2)[n+]1[O-]` [Example 5], the IC50 in experiment [1] is 2380 nM; in experiment [2], more than 100000 nM; in experiment [3], 370 nM; in experiment [4], 100 nM.
The matching figures for `CC(C)Nc1ccc(-c2ccccc2Oc2ccccc2)c(CC(=O)NCc2ccc(C(=N)N)cc2)[n+]1[O-]` [Example 6]: 6940 nM, more than 100000 nM, 86500 nM and 170 nM.
For the compound `CC(C)Nc1ccc(-c2cc(N)cc(N)c2)c(CC(=O)NCc2ccc(C(=N)N)cc2)[n+]1[O-]` [Example 7], the IC50 was determined as 84 nM in experiment [1], 60700 nM in experiment [3] and 22 nM in experiment [4].
`CC(C)Nc1ccc(-c2cccc(CO)c2)c(CC(=O)NCc2ccc(C(=N)N)cc2)[n+]1[O-]` [Example 9]: the IC50 in experiment [1] was 1720 nM; in experiment [2], more than 100000 nM; in experiment [3], 6600 nM; in experiment [4], 210 nM.
On to `CC(=O)c1cccc(-c2ccc(NC(C)C)[n+]([O-])c2CC(=O)NCc2ccc(C(=N)N)cc2)c1` [Example 10], for which the IC50 was 1700 nM in experiment [1], 3000 nM in experiment [3] and 35 nM in experiment [4]. Besides, the inhibition at 100 µM in experiment [2] (@ 100 uM, read-out: Factor Xa percent inhibition) was found to be 40%.
In the case of `CC(C)Nc1ccc(-c2csc3ccccc23)c(CC(=O)NCc2ccc(C(=N)N)cc2)[n+]1[O-]` [Example 11], the half-inhibitory concentration (IC50) in experiment [1] is 5600 nM; in experiment [2], 21000 nM; in experiment [3] it was 39500 nM; in experiment [4], 79 nM.
Regarding `CC(C)Nc1ccc(/C=C/c2ccccc2)c(CC(=O)NCc2ccc(C(=N)N)cc2)[n+]1[O-]` [Example 12], in experiment [1] (at 100 uM, read-out: TF-VIIA percent inhibition), the inhibition at 100 µM was 23%. Besides, the results for the IC50 in experiment [3] and in experiment [4] were 29000 nM and 990 nM, respectively.
On to `CC(C)Nc1ccc(-c2ccccc2CN2C(=O)c3ccccc3C2=O)c(CC(=O)NCc2ccc(C(=N)N)cc2)[n+]1[O-]` [Example 13], for which the IC50 in experiment [1] was 1420 nM; in experiment [2] it was more than 100000 nM; in experiment [3] it was 12000 nM; in experiment [4], 121 nM.
Turning to `CC(C)Nc1ccc(-c2cccc(N)c2)c(CC(=O)NCc2ccc(C(=N)N)cc2)[n+]1[O-]` [Example 14], the IC50 in experiment [1] was 155 nM; in experiment [2] it was more than 100000 nM; in experiment [3], 9900 nM; in experiment [4] it was less than 140 nM.

The term IC50 denotes the concentration that gives 50% inhibition. As usually defined, the inhibition is how much of the control response was suppressed.
